Assay results: patent US6933392B2, “Hydroxy substituted fused naphthyl-azoles and fused indeno-azoles and their use for the treatment of glaucoma” (Alcon, Inc., priority 2001, dated 2005)
Structures can show the parent of a compound that is named as a salt. Where two headings read alike, the source gives them in different places.

Columns and labels:
brain 5-HT2 receptors = brain 5-HT2 receptors (Rattus norvegicus, UniProt P14842); assay: 5-HT2 receptor binding assay ([125I]DOI competition); conditions: competition for [125I]DOI binding, rat or human cerebral cortex homogenates
Experimental: 5-HT2 Receptor Binding Assay
The assay mixture is incubated for 1 hour at 23° C. in polypropylene tubes and the assays terminated by rapid vacuum filtration over Whatman GF/B glass fiber filters previously soaked in 0.3% polyethyleneimine using ice-cold buffer. Test compounds (at different concentrations) are substituted for methiothepin. Filter-bound radioactivity is determined by scintillation spectrometry on a beta counter. The data are analyzed using a non-linear, iterative curve-fitting computer program [Trends Pharmacol. Sci., 16, 413 (1995)] to determine the compound affinity parameter. The concentration of the compound needed to inhibit the [^125I]DOI binding by 50% of the maximum is termed the IC50 or Ki value.

[1] = target: T1, 5-HT2 receptors in A7r5 rat vascular smooth muscle cells (Rattus norvegicus, UniProt P14842); assay: 5-HT2 functional assay: [Ca2+]i mobilization (FLIPR); format: cell-based; conditions: for Emax: read-out: Efficacy (Emax, %)
T1 construct: endogenous in cells; host or cells: A7r5 rat vascular smooth muscle cells
Experimental: 5-HT2 Functional Assay: [Ca^2+]i Mobilization
The receptor-mediated mobilization on intracellular calcium ([Ca^2+]i) was studied using the Fluorescence Imaging Plate Reader (FLIPR) instrument. Rat vascular smooth muscle cells, A7r5, were grown in a normal media of DMEM/10% FBS and 10 μg/mL gentamycin. Confluent cell monolayers were trypsinized, pelleted, and re-suspended in normal media. Cells were seeded in a 50 μL volume at a density of 20,000 cells/well in a black wall, 96-well tissue culture plate and grown for 2 days.
On the day of the experiment, one vial of FLIPR Calcium Assay Kit dye was re-suspended in 50 mL of a FLIPR buffer consisting of Hank's Balanced Salt Solution (HBSS), 20 mM HEPES, and 2.5 mM probenecid, pH 7.4. Cells were loaded with the calcium-sensitive dye by addition of an equal volume (50 μL) to each well of the 96-well plate and incubated with dye for 1 h at 23° C.
Compounds were diluted 1:50 in 20% DMSO/20% ethanol. For “hit” screening, compounds were further diluted 1:10 in FLIPR buffer and tested at a final concentration of 10 μM.
The compound plate and cell plate were placed in the FLIPR instrument. At the beginning of an experimental run, a signal test was performed to check the basal fluorescence signal from the dye-loaded cells and the uniformity of the signal across the plate. The basal fluorescence was adjusted between 8000-12000 counts by modifying the exposure time, the camera F-stop, or the laser power. Instrument settings for a typical assay were the following: laser power 0.3-0.6 W, camera F-stop F/2, and exposure time 0.4 sec. An aliquot (25 μL) of the test compound was added to the existing 100 μL dye-loaded cells at a dispensing speed of 50 μL/sec. Fluorescence data were collected in real-time at 1.0 sec intervals for the first 60 secs and at 6.0 sec intervals for an additional 120 secs.

[2] = A7r5 cells, FLIPR, percentage of maximum 5-HT-induced response
[3] = A7r5 cells, FLIPR, read-out: EC50, nM (5-HT2 functional, [Ca2+]i mobilization)

T1 sequence (P14842 whole entry): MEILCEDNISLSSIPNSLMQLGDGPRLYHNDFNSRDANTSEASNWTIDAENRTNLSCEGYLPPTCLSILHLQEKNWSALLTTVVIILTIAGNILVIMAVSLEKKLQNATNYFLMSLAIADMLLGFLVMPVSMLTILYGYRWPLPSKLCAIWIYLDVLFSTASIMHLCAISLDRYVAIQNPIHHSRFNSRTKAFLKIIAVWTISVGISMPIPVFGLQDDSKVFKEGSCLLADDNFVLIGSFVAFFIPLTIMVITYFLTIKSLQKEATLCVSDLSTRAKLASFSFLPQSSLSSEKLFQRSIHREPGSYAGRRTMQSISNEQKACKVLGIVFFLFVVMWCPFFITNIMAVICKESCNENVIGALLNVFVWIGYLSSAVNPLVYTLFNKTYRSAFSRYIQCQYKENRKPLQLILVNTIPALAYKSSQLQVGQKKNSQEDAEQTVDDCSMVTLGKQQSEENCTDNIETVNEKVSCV
Sequence of brain 5-HT2 receptors (P14842 whole entry): as above

SMILES: COc1cc(CC(C)N)c(OC)cc1I (stereo not shown) [DOI, reference compound]
- IC50 (brain 5-HT2 receptors): 0.33 nM
- Efficacy (Emax, %) [1, 2]: 31%
- EC50 [1, 3]: 30.2 nM

SMILES: CC(N)Cn1ncc2c1-c1cc(O)ccc1CC2 (stereo not shown) [Example 2, 1-(2-Aminopropyl)-4,5-dihydro-1H-benzo[g]indazol-8-ol Dihydrochloride]
- Emax [1, 2]: 46%
- EC50 [1, 3]: 103 nM

SMILES: CC(N)Cn1ncc2ccc3cc(O)ccc3c21 (stereo not shown) [Example 4, 1-(2-Aminopropyl)-2H-benzo[g]indazol-7-ol]
- EC50 [1]: 211 nM
- Emax [1, 2]: 79%

SMILES: CC(N)Cn1ncc2c1-c1ccc(O)cc1C2 (stereo not shown) [Example 5, 1-(2-Aminopropyl)-1,4-dihydro-indeno[1,2-c]pyrazol-6-ol]
- Emax [1, 2]: 64%
- EC50 [1, 3]: 328 nM

SMILES: NCCc1c[nH]c2ccc(O)cc12 [Example 5-HT, 5-Hydroxytryptamine, reference compound]
- Emax [1, 2]: 107%
